Results as given in US7649010B2, “Carvedilol hydrobromide” (SmithKline Beechman Cork Limited, priority 2002, dated 2010).
≈ marks a conversion by molar mass, not a printed value. Structures can show the parent of a compound that is named as a salt.

Columns and labels:
physchem = conditions: thermodynamic from solid
Excerpt: (§1) At lower pH values (i.e., at a pH of 1 to 4 in various buffer systems), solubility of carvedilol is limited by the solubility of its protonated form or its corresponding salt formed in-situ.

[1] = pKa of the α-hydroxyl secondary amine functional group; assay type: physicochemical
Excerpt: as §1

α-adrenergic = conditions: cited from earlier work
β-adrenoreceptor = conditions: cited from earlier work
[2] = aqueous solubility of the crystalline salt compared with free base and other salts; assay type: physicochemical
[3] = solubility of the in-situ salt in acidic medium (simulated gastric fluid); assay type: physicochemical; conditions: generated in-situ in an acidic medium, such as simulated gastric fluid

In the case of `COc1ccccc1OCCNCC(O)COc1cccc2[nH]c3ccccc3c12` (racemic) [Carvedilol], the solubility (physchem; pH 5, aqueous buffer) is reported as roughly 100 µg/mL (≈ 246 µM), the solubility (physchem; pH 7, aqueous buffer) is reported as roughly 23 µg/mL (≈ 56.6 µM) and the solubility (physchem; pH 9, aqueous buffer) is reported as less than 1 µg/mL. The pKa [1] was 7.8.
In the case of `COc1ccccc1OCCNC[C@@H](O)COc1cccc2[nH]c3ccccc3c12` (single isomer, unassigned) [R(+) enantiomer], the α-adrenergic blocking activity (α-adrenergic) is listed as “exhibited”.
For `COc1ccccc1OCCNC[C@H](O)COc1cccc2[nH]c3ccccc3c12` (single isomer, unassigned) [S(−) enantiomer], the “nonselective β-adrenoreceptor blocking activity” value (β-adrenoreceptor) is given as “exhibited” and the α-adrenergic blocking activity (α-adrenergic) is given as “exhibited”.
With `COc1ccccc1OCCNCC(O)COc1cccc2[nH]c3ccccc3c12` (stereo not shown) [carvedilol hydrobromide] the “solubility compared to the free base of carvedilol” value ([2]; novel crystalline form) was “much higher solubility” and the “aqueous solubility relative to free base or other crystalline salts (hydrochloride)” value ([2]; pure crystalline solid) was “much higher aqueous solubility”.
In the case of `COc1ccccc1OCCNCC(O)COc1cccc2[nH]c3ccccc3c12.Cl` (stereo not shown) [hydrochloride salt of carvedilol], the “solubility relative to the protonated form of carvedilol” value [3] is reported as “less soluble”.
